Literature values, collected in patent publication US8529952B2 (Ethypharm, priority 1999, dated 2013).

- mean concentration in the plasma (dose of 300 mg of fenofibrate per day): ~15 micrograms/ml
- time to maximum concentration in the plasma after ingestion (on average): five
- half-life for elimination from the plasma (plasma): ~20 h
Structure (SMILES): CC(C)(Oc1ccc(C(=O)c2ccc(Cl)cc2)cc1)C(=O)O [fenofibric acid]
